The series has as its system U87 cells. Description: Comparison of peptide variants by crystal violet staining and light microscopy. The settings on record: U87 cells; 7.5, 10, 15, 20 and 25 µg/ml; 3 hours incubation. An excerpt: The sizes of the resulting in silico peptides varied from 10 to 30 amino acids. In order to facilitate their cellular internalisation, a TAT-HIV sequence was attached to the C-terminal ends. All peptides were […]. The peptide library was produced by Cambridge Peptides (Cambridge, UK). The peptides were then screened with the MTT (3-(4,5-dimethylthiazol-2-yl)-2,5-diphenyltetrazolium bromide) assay on U87 human glioma cells. Cellular morphology after peptide exposure was assessed by crystal violet staining and light microscopy. All experiments were performed in triplicate.
To increase the stability of the peptide, two further sub-formulations of the original formula (L-aa, containing only L-amino acids) were created: D-aa (retro inversed, (ri)), a peptide comprised of a backward sequence of the original in silico formula, yet made up solely of D-amino acids and an analogue peptide to original in silico peptide formula, comprised of D-amino acids. D-amino acids are highly resistant to protease mediated degradation and have a low immunogenic response. The respective peptide variants were tested in the following concentrations: 7.5, 10, 15, 20 and 25 µg/ml and incubated for 3 hours.

Regarding Ac-YGRKKRRQRRRGKTLRVAKAIYKRYIE-NH2, the “cytotoxic effect / potency by crystal violet staining” value was “cytotoxic effect”.

The record behind these values is article PMC4104761, “Identification of a novel lytic peptide for the treatment of solid tumours” (Genes & Cancer, 2014).
